Counter-ions that a name gives are not always drawn. Like-named read-outs stand apart in the source and are kept apart here. Ends that are not written are not given here.
What was measured:
[1] = system: brain parenchyma; details: awake patient, intra-arterial infusion; cited from earlier work
[2] = cited from earlier work
[3] = system: rat brain; assay: Endovascular brain mapping: dye or embolic agent infused into the internal carotid artery, brains harvested to examine staining quality; type: in vivo, Sprague Dawley rats; details: ICA infusion after blood brain barrier disruption with arabinose, dye mixed with Omnipaque
Protocol: Generally, Sprague Dawley rats were anesthetized and vascular access obtained by ventral cervical cutdown. A catheter was introduced into the common carotid artery proximal to the ICA. All other branches were clamped temporarily with aneurysm clips, permitting flow to the ICA alone. The blood brain barrier was disrupted with a solution of arabinose. […] Tantalum powder was also tested without blood brain barrier disruption. The brains were harvested for examination of the quality of staining.
Using a carotid cutdown method, the CCA was exposed and a catheter was introduced into the lumen proximal to the ICA. A ligature secured the catheter within the vessel. The external carotid artery and occipital artery were clamped, preserving flow to the ICA.
To test the use of tantalum powder, the same procedure described above was performed without disruption of the blood brain barrier. A small amount of tantalum powder suspension was then injected under fluoroscopic visualization until the right hemispheric distribution was opacified.

[4] = chronic subcutaneous injections; cited from earlier work
[5] = cited from earlier work; remark: listed apart in the source
[6] = Table 3, solvent or buffer named
[7] = Table 1, medium in which the fluorophore is solubilised

Row | Compound | Solubility [2, 6] | Solubility [2, 7] | other results
1 | C=CCC1(C(C)C#CCC)C(=O)N=C(O)N(C)C1=O (racemic) [Brevital®, Methohexital Sodium; 2,4,6 (1H, 3H, 5H) Pyrimidinetrione, 1-methyl-5-(1-methyl-2-pentynyl)-5-(2-propenyl)-, (±)-, monosodium salt] | – | – | duration of temporary neurological deficits after infusion [1]: resolve back to baseline within several minutes
2 | NCc1ccc(-c2c3ccc(=O)cc-3oc3cc(O)ccc23)c(C(=O)O)c1 [5-(aminomethyl) fluorescein, hydrochloride] | DMF | – | –
3 | CCCCCCCCCCCC(=O)Nc1ccc(-c2c3ccc(=O)cc-3oc3cc(O)ccc23)c(C(=O)O)c1 [5-dodecanoylamino-fluorescein] | – | CDs | –
4 | CCCCc1ccc2n1[B-](F)(F)[N+]1=C(CCCCCCCCC(=O)O)C=CC1=C2 [C4-BODIPY ® (500/510) C9, 5-butyl-4,4-difluoro-4-bora-3a,4a-diaza-s-indacene-3-nonanoic acid] | – | CDs | –
5 | CCN(Cc1cccc(S(=O)(=O)[O-])c1)c1ccc(C(=C2C=CC(=[N+](CC)Cc3cccc(S(=O)(=O)[O-])c3)C=C2)c2ccc(O)cc2S(=O)(=O)[O-])cc1.[Na+].[Na+] [FD & C Green #3] | – | – | staining of the selected vascular distribution of the brain [3]: clearly stained both on the cortical surface; staining of the selected vascular distribution of the brain ([3]; listed as FD&C Green #3): good staining of a selective vascular distribution; induction of sarcomas [4]: induction of sarcomas
6 | CC1=CC(C)=[N+]2C1=Cc1c(C)cc(C)n1[B-]2(F)F [Tetramethyl- BODIPY ® (505/515), 4,4-difluoro-1,3,5,7-tetramethyl-4-bora-3a,4a-diaza-s-indacene] | – | Cyclodextrins (CD) | –
7 | FLUO-RGGRLSYSRRRESTSTGR (not fully specified (N-terminus); printed as FLUO-RGGRLSYSRRRESTSTGR) [FLUO-L-SynB1] | Phosphate | – | –
8 | FLUO-RRLSYSRRRF (not fully specified (N-terminus); printed as FLUO-RRLSYSRRRF) [FLUO-L-SynB3] | PBS | – | –
9 | carboxymethyl-β-cyclodextrin [CM-β-CD] | – | – | solubility in water [5]: 50 mg/mL
